Reference: patent publication US8633168B2, “Inhibitors of S-adenosyl-L-methionine decarboxylase” (Genzyme Corporation, priority 2007, dated 2014)
pIC50: −log10 of the molar value.

What was measured:
[1] = test system: Schistosomes lavae; test: Screening against Schistosomes, larvae; assay type: cell-based; settings: Screening Data
[2] = molecular target: CYP2C9 (Homo sapiens, UniProt P11712); test: Cytochrome P450 inhibition, CYP2C9
From the text: (§1) This cytochrome P450 high throughput IC50 inhibition assay is utilized for screening potential inhibitors of the 5 major human CYP isozyme catalytic activities (CYP3A4, 2D6, 2C9, 2C19, and 1A2).

[3] = Solubility in phosphate buffer; assay type: physicochemical; settings: phosphate buffer, aqueous buffer, kinetic from dmso stock; Example 12 chart; pH 7.4
Method: A stock solution for each test compound was prepared at 25 mM in DMSO. These were diluted into phosphate buffer and equilibrated for 16 hours at room temperature, and then filtered to remove precipitated compound. The UV absorbance of this equilibrated sample was compared to a single point reference standard.

[4] = molecular target: T1, CYP1A2 (Homo sapiens, UniProt P05177); test: Cytochrome P450 inhibition, CYP1A2
T1 sequence (P05177 1-516): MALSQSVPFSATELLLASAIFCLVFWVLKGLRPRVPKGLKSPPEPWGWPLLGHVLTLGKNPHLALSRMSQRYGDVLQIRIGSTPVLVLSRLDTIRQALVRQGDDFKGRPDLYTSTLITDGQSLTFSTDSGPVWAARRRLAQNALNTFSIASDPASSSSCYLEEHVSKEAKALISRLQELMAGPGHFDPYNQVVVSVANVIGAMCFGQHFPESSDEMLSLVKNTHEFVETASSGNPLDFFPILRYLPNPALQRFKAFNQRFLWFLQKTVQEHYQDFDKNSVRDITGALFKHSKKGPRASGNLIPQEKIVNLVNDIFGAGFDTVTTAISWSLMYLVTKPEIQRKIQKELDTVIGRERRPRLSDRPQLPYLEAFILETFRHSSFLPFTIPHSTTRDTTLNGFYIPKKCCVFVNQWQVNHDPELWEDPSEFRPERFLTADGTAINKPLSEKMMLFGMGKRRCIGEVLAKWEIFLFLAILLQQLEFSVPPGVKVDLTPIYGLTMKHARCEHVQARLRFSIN
From the text: as §1

[5] = LogD
[6] = test system: T. b. brucei; test: Cell-based screening against T. b. brucei; set-up: species or system Trypanosoma brucei brucei; settings: Screening Data, two values per compound
Method: The bloodstream form trypomastigotes of the three strains are maintained according to standard protocols established at STI.
Drug sensitivity assays are performed in sterile 96-well microtiter plates, with or without serial drug dilutions. The highest concentration for the test compounds is 90 μg/ml. Each drug is tested in duplicate. After 72 hours of incubation the plates are inspected microscopically to assure growth of the controls to determine the minimum inhibitory concentration (MIC), i.e., the lowest drug concentration at which no trypanosomes with normal morphology and motility can be seen compared to control wells. Cell viability is measured by Alamar blue staining and IC50 values are calculated.
Active compounds (IC50<0.2 μg/ml) are tested against the Trypanosoma brucei gambiense STIB 930 and the multi-drug resistant T. b. brucei STIB 950 following the same protocol as described above.
This example provides data relating to the biological screening results. MDL 73811 and selected new compounds 1-7 were tested against a variety of cell-based organisms and enzymes and the IC50 measured. In vitro ADME profiles were also obtained. Solubility, permeability, microsomal/hepatocyte stability, cychrome P450 inhibition and plasma protein binding characteristics were probed for each of the compounds. The methodology for these tests are described in previous paragraphs. The results are summarized in the following 2 charts.

[7] = molecular target: CYP2D6 (Homo sapiens, UniProt P10635); test: Cytochrome P450 inhibition, CYP2D6
Chain of CYP2D6 (P10635 whole entry): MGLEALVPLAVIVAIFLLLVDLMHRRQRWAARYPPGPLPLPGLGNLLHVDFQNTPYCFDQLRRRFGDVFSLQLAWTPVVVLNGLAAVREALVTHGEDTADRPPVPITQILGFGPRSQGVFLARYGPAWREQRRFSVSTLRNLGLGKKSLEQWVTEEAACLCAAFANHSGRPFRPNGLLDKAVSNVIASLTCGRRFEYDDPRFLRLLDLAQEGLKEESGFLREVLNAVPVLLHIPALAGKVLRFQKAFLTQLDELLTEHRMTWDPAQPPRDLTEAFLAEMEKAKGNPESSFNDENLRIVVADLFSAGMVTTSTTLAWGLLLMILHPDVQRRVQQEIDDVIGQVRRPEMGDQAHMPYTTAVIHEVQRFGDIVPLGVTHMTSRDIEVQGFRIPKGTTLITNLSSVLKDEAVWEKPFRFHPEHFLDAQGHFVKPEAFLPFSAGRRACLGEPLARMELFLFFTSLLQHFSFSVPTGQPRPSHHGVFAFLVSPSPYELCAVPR
From the text: as §1

[8] = molecular target: CYP2C19 (Homo sapiens, UniProt P33261); test: Cytochrome P450 inhibition, CYP2C19
Chain of CYP2C19 (P33261 whole entry): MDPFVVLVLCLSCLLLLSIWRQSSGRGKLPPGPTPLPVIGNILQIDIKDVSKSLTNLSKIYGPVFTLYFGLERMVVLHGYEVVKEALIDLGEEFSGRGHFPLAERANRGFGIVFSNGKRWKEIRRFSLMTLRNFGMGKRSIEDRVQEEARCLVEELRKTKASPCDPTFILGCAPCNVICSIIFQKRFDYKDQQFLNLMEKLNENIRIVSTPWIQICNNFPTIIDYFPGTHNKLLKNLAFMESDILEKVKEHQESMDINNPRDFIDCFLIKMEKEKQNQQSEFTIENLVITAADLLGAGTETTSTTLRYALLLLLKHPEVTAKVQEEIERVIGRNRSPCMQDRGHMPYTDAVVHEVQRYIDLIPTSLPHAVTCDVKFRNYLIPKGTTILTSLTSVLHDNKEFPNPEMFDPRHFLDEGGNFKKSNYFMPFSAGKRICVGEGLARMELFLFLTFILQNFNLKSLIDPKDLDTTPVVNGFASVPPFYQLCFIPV
From the text: as §1

[9] = molecular target: CYP3A4 (Homo sapiens, UniProt P08684); test: Cytochrome P450 inhibition, CYP3A4
Chain of CYP3A4 (P08684 whole entry): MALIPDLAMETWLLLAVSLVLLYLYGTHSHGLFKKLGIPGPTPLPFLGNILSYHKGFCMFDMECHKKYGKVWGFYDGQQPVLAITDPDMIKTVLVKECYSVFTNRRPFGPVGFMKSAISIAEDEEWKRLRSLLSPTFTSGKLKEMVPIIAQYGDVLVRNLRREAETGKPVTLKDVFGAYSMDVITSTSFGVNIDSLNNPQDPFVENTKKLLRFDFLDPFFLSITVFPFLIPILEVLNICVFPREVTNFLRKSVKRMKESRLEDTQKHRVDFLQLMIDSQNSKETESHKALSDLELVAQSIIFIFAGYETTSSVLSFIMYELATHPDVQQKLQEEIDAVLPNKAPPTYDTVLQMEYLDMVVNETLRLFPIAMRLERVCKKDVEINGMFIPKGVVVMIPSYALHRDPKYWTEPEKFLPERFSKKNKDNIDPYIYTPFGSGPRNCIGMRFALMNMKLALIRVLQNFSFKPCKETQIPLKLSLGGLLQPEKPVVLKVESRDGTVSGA
From the text: as §1

[10] = test system: Schistosomes adult; test: Screening against Schistosomes, adult; assay type: cell-based; settings: Screening Data

Chain of CYP2C9 (P11712 whole entry): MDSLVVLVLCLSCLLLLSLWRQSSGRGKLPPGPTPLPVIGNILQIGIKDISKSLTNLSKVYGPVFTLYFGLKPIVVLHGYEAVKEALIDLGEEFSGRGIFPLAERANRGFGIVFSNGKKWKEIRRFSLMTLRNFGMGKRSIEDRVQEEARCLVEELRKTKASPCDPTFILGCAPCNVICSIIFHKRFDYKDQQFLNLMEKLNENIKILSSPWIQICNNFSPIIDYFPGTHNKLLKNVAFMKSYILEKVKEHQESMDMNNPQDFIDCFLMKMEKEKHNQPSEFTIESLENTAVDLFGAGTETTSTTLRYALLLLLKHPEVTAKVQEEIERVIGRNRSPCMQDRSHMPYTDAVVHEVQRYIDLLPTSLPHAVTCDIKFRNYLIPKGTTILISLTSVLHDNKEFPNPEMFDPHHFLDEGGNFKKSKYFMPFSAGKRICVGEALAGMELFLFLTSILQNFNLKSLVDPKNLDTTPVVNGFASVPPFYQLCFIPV

pIC50 [2] | solubility at 16 hours [3] | pIC50 [4] | logD [5] | pIC50 [7] | pIC50 [8] | pIC50 [9] | pIC50 [10] | Compound | pIC50 [1] | pIC50 [6] | pIC50 ([6]; Trypanosoma brucei)
< 5.30 | > 52 µg/mL | < 5.30 | < 1 | < 5.30 | < 5.30 | < 5.30 | < 5.00 | CCCc1nc2c(N)ncnc2n1[C@@H]1O[C@H](CN(C)C/C=C\CN)[C@@H](O)[C@H]1O [Compound 7] | < 5.00 | 5.03 | 4.90
< 5.30 | > 51 µg/mL | < 5.30 | < 1 | < 5.30 | < 5.30 | < 5.30 | < 5.00 | CCc1nc2c(N)ncnc2n1[C@@H]1O[C@H](CN(C)C/C=C\CN)[C@@H](O)[C@H]1O [Compound 6] | < 5.00 | 6.19 | 5.94
< 5.30 | > 49 µg/mL | < 5.30 | < 1 | < 5.30 | < 5.30 | < 5.30 | < 5.00 | Cc1nc(N)c2ncn([C@@H]3O[C@H](CN(C)C/C=C\CN)[C@@H](O)[C@H]3O)c2n1 [Compound 5] | < 5.00 |  | < 4.85
